Source: publication PMC12294420, “Phytochemical Characterization, Bioactivities, and Nanoparticle-Based Topical Gel Formulation Development from Four Mitragyna speciosa Varieties” (Gels, 2025)

Key:
[1] = target: T1, bovine testis hyaluronidase (Bos taurus, UniProt Q2YDK3); test: turbidimetric hyaluronic acid degradation assay, […] nm; assay type: biochemical; conditions: read-out: % inhibition at 1 mg/mL
T1 construct: gene SPAM1; commercial native testis preparation (Sigma-Aldrich)
T1 sequence (Q2YDK3 36-553): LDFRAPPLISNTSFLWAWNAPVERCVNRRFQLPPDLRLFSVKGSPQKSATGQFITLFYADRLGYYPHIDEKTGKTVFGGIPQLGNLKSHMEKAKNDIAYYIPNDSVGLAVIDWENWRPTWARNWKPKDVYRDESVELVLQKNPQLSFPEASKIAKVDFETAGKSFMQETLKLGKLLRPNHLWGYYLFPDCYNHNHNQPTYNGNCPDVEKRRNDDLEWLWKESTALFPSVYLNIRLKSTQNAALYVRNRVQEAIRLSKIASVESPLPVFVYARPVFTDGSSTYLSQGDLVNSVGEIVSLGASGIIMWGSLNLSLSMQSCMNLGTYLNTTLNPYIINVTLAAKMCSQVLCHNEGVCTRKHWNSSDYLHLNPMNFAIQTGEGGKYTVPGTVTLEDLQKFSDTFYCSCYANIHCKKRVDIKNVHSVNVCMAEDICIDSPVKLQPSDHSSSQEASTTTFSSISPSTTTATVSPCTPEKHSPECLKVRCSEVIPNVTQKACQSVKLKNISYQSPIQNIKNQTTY

[2] = target: T2, porcine pancreatic elastase (Sus scrofa, UniProt P00772); test: Suc-Ala-Ala-Ala-pNA hydrolysis, […] nm kinetic; assay type: biochemical; conditions: read-out: % inhibition at 1 mg/mL
T2 construct: gene CELA1; commercial native pancreatic enzyme (Sigma-Aldrich)
T2 sequence (P00772 27-266): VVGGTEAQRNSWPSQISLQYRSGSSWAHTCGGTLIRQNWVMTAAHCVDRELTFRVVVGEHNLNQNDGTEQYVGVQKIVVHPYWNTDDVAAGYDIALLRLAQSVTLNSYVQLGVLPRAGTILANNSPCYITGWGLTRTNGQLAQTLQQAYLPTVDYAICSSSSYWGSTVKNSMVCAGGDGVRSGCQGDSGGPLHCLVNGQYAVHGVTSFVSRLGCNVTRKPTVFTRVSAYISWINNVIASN

CC[C@@H]1CN2CCc3c([nH]c4cccc(OC)c34)[C@@H]2C[C@@H]1/C(=C\OC)C(=O)OC [mitragynine]
inhibition at 1000 µg/mL [1]: 83.3 ± 1.35%
inhibition at 1000 µg/mL [2]: 54.5 ± 1.5%
